Reference: ChEMBL document CHEMBL3792363, “2,6-Bis(benzimidazol-2-yl)pyridine as a potent transmembrane anion transporter” (Bioorg Med Chem Lett, 2016)

Key:
[1] = Ionophoric activity assessed as induction of pH discharge across EYPC based liposomal membranes using chloride salt of Na+ ions at 3% by pyranine based fluorescence assay; conditions: artificial membrane
[2] = Ionophoric activity assessed as induction of chloride influx into EYPC based liposomal membranes at 5% measured within 5 mins by lucigenin based fluorescence assay; conditions: artificial membrane
[3] = Ionophoric activity assessed as induction of chloride influx into EYPC based liposomal membranes at 1 to 5% in presence of intravesicular Na2SO4 by lucigenin based fluorescence assay; conditions: artificial membrane
[4] = Binding affinity to chloride anion assessed as association constant by spectrometric titration method
[5] = Ionophoric activity assessed as induction of pH discharge across EYPC based liposomal membranes using chloride salt of Li+ ions at 3% by pyranine based fluorescence assay; conditions: artificial membrane
[6] = Ionophoric activity assessed as induction of chloride influx into EYPC based liposomal membranes at 1 to 5% in presence of intravesicular NaNO3 by lucigenin based fluorescence assay; conditions: artificial membrane
[7] = Ionophoric activity assessed as induction of pH discharge across EYPC based liposomal membranes using chloride salt of K+ ions at 3% by pyranine based fluorescence assay; conditions: artificial membrane
[8] = Binding affinity to chloride anion assessed as association constant by spectrometric titration method relative to Me2bimpy
[9] = Ionophoric activity assessed as induction of pH discharge across EYPC based liposomal membranes at 1 to 5% by pyranine based fluorescence assay; conditions: artificial membrane
[10] = Ionophoric activity assessed as induction of pH discharge across EYPC based liposomal membranes using chloride salt of Cs+ ions at 3% by pyranine based fluorescence assay; conditions: artificial membrane
[11] = Ionophoric activity assessed as induction of pH discharge across POPC based liposomal membranes at 1 to 5% by pyranine based fluorescence assay; conditions: artificial membrane
[12] = Binding affinity to nitrate anion assessed as association constant by spectrometric titration method relative to Me2bimpy
[13] = Binding affinity to iodide anion assessed as association constant by spectrometric titration method relative to Me2bimpy
[14] = Ionophoric activity assessed as induction of pH discharge across EYPC based liposomal membranes using chloride salt of Rb+ ions at 3% by pyranine based fluorescence assay; conditions: artificial membrane
[15] = Ionophoric activity assessed as induction of pH discharge across POPC/cholesterol (30%) based liposomal membranes at 1 to 5% by pyranine based fluorescence assay; conditions: artificial membrane
[16] = Binding affinity to nitrate anion assessed as association constant by spectrometric titration method
[17] = Ionophoric activity assessed as induction of chloride influx into EYPC based liposomal membranes at 1 to 5% in presence of intravesicular and extravesicular by lucigenin based fluorescence assay; conditions: artificial membrane
[18] = Binding affinity to bromide anion assessed as association constant by spectrometric titration method
[19] = Binding affinity to bromide anion assessed as association constant by spectrometric titration method relative to Me2bimpy
[20] = Binding affinity to iodide anion assessed as association constant by spectrometric titration method
[21] = Ionophoric activity assessed as induction of pH discharge across EYPC based liposomal membranes at 5% by pyranine based fluorescence assay; conditions: artificial membrane
[22] = Ionophoric activity assessed as induction of chloride influx into EYPC based liposomal membranes at 15% measured within 5 mins by lucigenin based fluorescence assay; conditions: artificial membrane

| SMILES | Ka [4] | Activity [6] | Activity [9] | Ka [16] | Ka [18] | Ka [20] | Activity [22] | also measured |
| --- | --- | --- | --- | --- | --- | --- | --- | --- |
| c1cc(-c2nc3ccccc3[nH]2)cc(-c2nc3ccccc3[nH]2)c1 | – | – | – | – | – | – | – | Activity [21]: Active |
| O=C(NCc1ccccc1)[C@@H](Cc1ccccc1)n1cc[n+](Cc2cccc(C[n+]3ccn([C@H](Cc4ccccc4)C(=O)NCc4ccccc4)c3)c2)c1.O=S(=O)([N-]S(=O)(=O)C(F)(F)F)C(F)(F)F.O=S(=O)([N-]S(=O)(=O)C(F)(F)F)C(F)(F)F | – | – | – | – | – | – | 35% | – |
| CC(C)[C@H](C(=O)NCc1ccccc1)n1cc[n+](Cc2cccc(C[n+]3ccn([C@@H](C(=O)NCc4ccccc4)C(C)C)c3)c2)c1.O=S(=O)([N-]S(=O)(=O)C(F)(F)F)C(F)(F)F.O=S(=O)([N-]S(=O)(=O)C(F)(F)F)C(F)(F)F | – | – | – | – | – | – | 35% | – |
| CCCCCCCCCCCCNC(=O)[C@@H](C(C)C)n1cc[n+](Cc2cccc(C[n+]3ccn([C@@H](C(=O)NCCCCCCCCCCCC)C(C)C)c3)c2)c1.O=S(=O)([N-]S(=O)(=O)C(F)(F)F)C(F)(F)F.O=S(=O)([N-]S(=O)(=O)C(F)(F)F)C(F)(F)F | – | – | – | – | – | – | 35% | – |

Continued, in another order:

| Ka [4] | Activity [6] | Activity [9] | Ka [16] | Ka [18] | Ka [20] | SMILES | Activity [22] | also measured |
| --- | --- | --- | --- | --- | --- | --- | --- | --- |
| 8.71 ×10³ /M | Active | Active | 4.9 ×10³ /M | 3.04 ×10³ /M | 1.57 ×10³ /M | c1cc(-c2nc3ccccc3[nH]2)nc(-c2nc3ccccc3[nH]2)c1 | – | Activity [1]: Active; Activity [2]: 35%; Activity [3]: Active; Activity [5]: Active; Activity [7]: Active; fold change (FC) [8]: 22; Activity [10]: Active; Activity [11]: Not Active; fold change (FC) [12]: 6.8; fold change (FC) [13]: 2.2; Activity [14]: Active; Activity [15]: Not Active; Activity [17]: Active; fold change (FC) [19]: 6 |
| 4 ×10² /M | Not Active | Not Active | 7.23 ×10² /M | 5.03 ×10² /M | 7.07 ×10² /M | Cn1c(-c2cccc(-c3nc4ccccc4n3C)n2)nc2ccccc21 | – | – |
